Experimental data published in patent US7776911B2 (priority 2005, dated 2010).
“Also recorded” adds a separate entry of the source.

Experiments:
[1] = test system: P. falciparum (chloroquine-resistant); assay: P. falciparum culture growth by [3H]-hypoxanthine uptake, drugs singly or in combination, with isobolographic analysis; assay type: cell-based, Plasmodium falciparum; details: 48 hrs, starting parasitemia 2-3%
Experimental: (§1) Appropriate solvent controls were used. Parasite growth was measured by staining the slides with Giemsa as well as [α3H]-hypoxanthine uptake. In the latter case, the cultured cells were lysed with water and the parasites collected by filtration, washed and radioactivity measured. Adult f mice (40-50 g) were infected with P. berghei by intraperitoneal injection of an aliquot of infected mouse blood. After 24 hr, the animals were given a single injection of different amounts of artemisinin derivative at a dose of 5 mg/mouse. The oral feeding was repeated after 24 hr and 48 hr. Parasite count was measured in blood before and drug therapy at different time intervals using Giemsa to stain the slides. All the infected mice die in a span of 5-8 days and the efficacy of the drugs given singly or in combination was measured in terms of parasite clearance in blood and protection against mortality.
The potency of the combination was assessed by isobolographic characterization of the drug interactions. The additive or synergistic or antagonistic effects were assessed based on the following interaction index:
When I is less than 1 the drugs interact synergistically and the isobol bows below the line of additivity. When I is equal to 1 the isobol is coincident with the line of additivity and the interaction is additive. When I is greater than 1, the isobol bows above the line of additivity and the interaction is antagonistic. […] The interaction between curcumin and artemisinin is thus clearly synergistic.
P. falciparum (chloroquine-resistant) was maintained in culture using human O+ve red cells and serum by the candle jar method as per standard protocols. […] Appropriate solvent controls were used. Parasite growth was quantitatively measured using 3[H]-hypoxanthine uptake. The cultured cells were incubated for 48 hrs and then the parasites were collected by filtration after lysis of the cells. The filters were extensively washed and then radioactivity measured. […] The potency of the combination was assessed by isobolographic characterization of drug interactions.
The T values ranged from 0.7 to 0.85 in all combinations. The isobol bowling below the line of additivity and the T values being less than 1 indicate that the curcumin-artemisinin. Interaction is clearly synergistic

[2] = test system: P. berghei; assay: Protection of mice infected with P. berghei (mortality, parasite count in blood); assay type: in vivo
Experimental: as §1
Striking results were obtained in terms of parasite clearance and protection against mortality. The experiments were carried out with 6 mice per batch and the experiments were repeated at least 3 times. The results presented in FIG. 3 represent those obtained in a typical experiment. The results obtained in the 2nd and 3rd experiments are identical in pattern. The average pattern obtained with the infected animals is as follows. All the infected animals die in about 5-8 days. […] A single injection of artemisinin derivative (α,β-arteether) at a dose of 500 μg/mouse results in death of animals in 10-12 days. […] Treatment with a single injection α,β-arteether at 750 μg and 1.5 mg results in death of animals between 20-26 days and 32-38 days respectively. […] The animals continue to live normally for several months. This picture is also supported by parasite load in blood (FIG. 4).
Methodology; Mice (−40 g) were infected ˜ with P. berghei by intraperitoneal infection. After 24 hrs, the animals received a single injection of different concentrations of a derivative of artemisinin (α,β-arteether) (500˜g to 1.5 mg) by the intramuscular route. […] The oral treatment was repeated after 24 hr and 48 hr. Blood smears were made from the mice at different day intervals and parasites stained with Giemsa. […] The experiments were repeated thrice with 6 mice in each group.

[3] = test system: P. falciparum; details: culture of P. falciparum; cited from earlier work
[4] = test system: P. berghei; details: mice infected with P. berghei; cited from earlier work

`C[C@@H]1CC[C@H]2[C@@H](C)C(=O)O[C@@H]3O[C@@]4(C)CC[C@@H]1[C@]32OO4` [artemisinin] gave an IC50 [1] of roughly 0.055 µM and an IC50 ([1]; Plasmodium falciparum) of 0.045 to 0.055 µM.

With `CCO[C@H]1O[C@@H]2O[C@@]3(C)CC[C@H]4[C@H](C)CC[C@@H]([C@H]1C)[C@@]24OO3` [α,β-arteether] the death of animals ([2]; single injection 750 μg per mouse) was 20 to 26 days, the death of animals ([2]; single injection 1.5 mg per mouse) was 32 to 38 days and the “parasite load in blood” value ([2]; single injection, Giemsa stained blood smears) was “clears the parasites in blood initially, but there is recrudescence; also recorded: clears parasites in blood initially, but there was recrudescence”.

In the case of `COc1cc(/C=C/C(=O)CC(=O)/C=C/c2ccc(O)c(OC)c2)ccc1O` [curcumin], the IC50 [1] is reported as roughly 15 µM, the IC50 ([1]; Plasmodium falciparum) is reported as 15 to 17 µM and the death of animals ([2]; curcumin alone, 3 day oral treatment (5 mg), untreated infected mice die in 5-8 days) is reported as 10 to 12 days. For the same molecule, the antimalarial activity [3] was “has antimalarial activity” and the antimalarial activity [4] was “has antimalarial activity”.
